# From publication PMC7153278, “Discovery of Membrane-Bound Pyrophosphatase Inhibitors Derived from an Isoxazole Fragment” (ACS Medicinal Chemistry Letters, 2020)
# pIC50: −log10 of the molar value.
# Target: Thermotoga maritima mPPase (TmPPase) (Thermotoga maritima, UniProt Q9S5X0)
# Assay: TmPPase inhibition assay (96-well plate, orthophosphate determination)
# Format: biochemical
# Conditions: 2-bromophenyl carboxylates 25 and 26 versus 5 and 23; call rule not given here
# Method: The inhibition assay was measured in 96 well plate assay as previously reported.5,6 Briefly, 1 µL of purified TmPPase (13 mg/mL) was reactivated in 99 µL of reactivation buffer (20 mM 2-(N-morpholino) ethanesulfonic acid (MES) pH 6.5, 3.5% (v/v) glycerol, 2 mM dithiothreitol (DTT), 4.5% dodecyl maltoside (DDM) and 12 mg/mL L-α-phosphatidylcholine from soybean) and incubated at 55 °C for 15 min. For the assay, to each tube strips, 0.2 µL of the reactivated enzyme was added to 14.8 µL of reaction buffer (200 mM Tris-Cl pH 8.0, 8.0 mM MgCl2, 333 mM KCl, and 67 mM NaCl) and 25 µL of inhibitor. The reaction mixtures were sealed with an adhesive sealing sheet (Thermo Scientific) and incubated at 71 °C for 5 min. The reactions were started with the addition of 10 µL of 2 mM sodium pyrophosphate, further incubation at 71 °C for 5 min and stopped by placing the reaction mixtures on ice for 10 min. The color development was done with the addition of ammonium heptamolybdate + ascorbic acid solution on ice for 10 min and then 90 µL of arsenic solution, at room temperature, for a minimum of 30 min. 180 µL of each reaction mixtures was then transferred into a clear 96 well polystyrene microplate and the absorbance was measured at 860 nm using a microplate spectrophotometer (MultiSkan Go, Thermo Scientific). The pilot inhibitor screening of 16 phosphate-mimicking fragments was done at 100 μM inhibitor concentration. Further screening was done with three different concentrations; 1 μM, 5 μM and 50 μM for soluble compounds, and 1 μM, 5 μM, and 20 μM for sparingly soluble compounds.6 The best hits were validated using 8 concentrations in triplicate in TmPPase.
# The potent hits 12k and 12l compounds were then tested on the P. falciparum (PfPPase-VP1) membrane fractions expressed in baculovirus-infected insect cells (the expression method and further enzyme analysis will be described in more detail elsewhere). Briefly, to each tube strips, 2.4 µL of PfPPase-VP1 membrane fraction (5 mg/mL) was added into 12.6 µL of reaction buffer (200 mM Tris-Cl pH 8.0, 8.0 mM MgCl2, 333 mM KCl, 67 mM NaCl, 3.3 mM NaF, and 17 μM Gramicidin D) and 25 µL of inhibitor. The reaction mixtures were incubated at 30 °C for 5 min and the assay was started by the addition of 10 µL of 2 mM sodium pyrophosphate and further incubation at 30 °C for 10 min. The reaction termination and color development were done as before.
# The in vitro anti-plasmodial activity assay strain 3D7 was maintained in culture as described previously.7 Briefly, parasites were cultured in O+ human erythrocytes at 5% haematocrit in RPMI - 1640 medium supplemented with 0.5% Albumax II (Gibco, Carlsbad, CA, USA), 200 μM hypoxanthine (Sigma, St. Louis, MO, USA) and 20 μg/mL gentamycin (Gibco). Parasites were synchronized with the sorbitol method as described. 8 Test compound was dissolved in DMSO to make a stock solution of 10 mM. Two -fold serial dilutions of the test compound were made in the culture medium to cover the range of 400 µM – 400 nM. Fifty microliters of each dilution were mixed in 96 well plate with 150 µL of 2% haematocrit of 0.5% parasitemia (ring stage). DMSO concentration in the highest compound concentration w as 0.1%. After 72 h incubation at 37 °C, the parasite growth was quantified using fluorescent SYBR Green I ® -based assay as described. 9 The half-maximal inhibitory concentration (IC 50) of the test compound was assessed using the non-linear regression fit model in Prism 7 (GraphPad Software). The potent anti-malarial drug, artemisinin, was use in parallel as a positive control. Each concentration of the test compound was tested in duplicate and the assay was repeated three times. The mean and standard deviation of the three repeats were used to estimate the IC50.
# IC50 determinations were done using R 3.6.110 and the n-parameter logistic regression (nplr) package11 version 0.1-7. In this package, the weighted nplr, given x (compound concentrations) and […]
# Sequence of Thermotoga maritima mPPase (TmPPase) (Q9S5X0 whole entry): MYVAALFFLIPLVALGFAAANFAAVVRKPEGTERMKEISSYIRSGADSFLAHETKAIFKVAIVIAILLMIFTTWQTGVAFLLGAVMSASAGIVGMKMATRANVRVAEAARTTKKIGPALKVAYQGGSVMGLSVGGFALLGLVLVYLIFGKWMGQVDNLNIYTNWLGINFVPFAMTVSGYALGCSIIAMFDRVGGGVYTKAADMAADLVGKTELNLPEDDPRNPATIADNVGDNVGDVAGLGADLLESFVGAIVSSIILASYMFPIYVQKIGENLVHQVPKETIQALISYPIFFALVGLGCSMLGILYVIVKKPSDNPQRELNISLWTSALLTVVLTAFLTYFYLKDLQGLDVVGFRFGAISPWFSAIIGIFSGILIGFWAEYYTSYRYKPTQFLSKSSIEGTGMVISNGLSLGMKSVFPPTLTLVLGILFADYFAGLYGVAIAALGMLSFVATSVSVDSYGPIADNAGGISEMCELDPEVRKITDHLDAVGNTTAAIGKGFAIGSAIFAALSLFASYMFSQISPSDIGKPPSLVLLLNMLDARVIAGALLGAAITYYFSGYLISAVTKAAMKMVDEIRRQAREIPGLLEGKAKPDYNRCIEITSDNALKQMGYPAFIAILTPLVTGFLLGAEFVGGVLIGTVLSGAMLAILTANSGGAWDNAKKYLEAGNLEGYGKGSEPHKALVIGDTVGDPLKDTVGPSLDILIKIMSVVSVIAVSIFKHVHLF
row,Structure (SMILES),fold loss in activity compared to the carboxylic acids
1,Cc1nc(-c2cc(C(=O)Oc3ccccc3Br)no2)cs1 [Compound 25],27 fold
2,O=C(Oc1ccccc1Br)c1cnc(-c2ccccc2)s1 [Compound 26],1.6 fold

# Same assay, conditions: IC50 [CI95%] (µM), purified TmPPase; unrounded values of the molecular formula strings file
row,Structure (SMILES),IC50
1,CCOC(=O)c1cc(-c2cccc(C(C)(C)C)c2)on1 [Compound 10j],1210 µM
2,O=C(Oc1ccccc1Br)c1cc(-c2ccc([N+](=O)[O-])cc2)on1 [Compound 12h],19.6 µM
3,CCOC(=O)c1cc(-c2ccc(OC)c(S(=O)(=O)Nc3cc(C)on3)c2)on1 [SI-17],240 µM
4,CCOC(=O)c1cc(-c2ccc(OC)c(S(=O)(=O)NC3CCCc4ccccc43)c2)on1 (centres unmarked) [SI-19],29.1 µM
5,CCOC(=O)c1cc(-c2ccc(OC)c(S(=O)(=O)Nc3ccc(F)cc3Cl)c2)on1 [SI-29],180 µM

# Same assay, conditions: IC50 [CI95%], purified TmPPase; 95% confidence interval in square brackets
row,Structure (SMILES),pIC50
1,O=C(Oc1ccccc1Br)c1cc(-c2ccc([N+](=O)[O-])cc2)on1 [Compound 12h],4.70
2,CCOC(=O)c1cc(-c2ccc(OC)c(S(=O)(=O)Nc3cc(C)on3)c2)on1 [SI-17],3.62
3,CCOC(=O)c1cc(-c2ccc(OC)c(S(=O)(=O)NC3CCCc4ccccc43)c2)on1 (centres unmarked) [SI-19],4.54
4,CCOC(=O)c1cc(-c2ccc(OC)c(S(=O)(=O)Nc3ccc(F)cc3Cl)c2)on1 [SI-29],3.74

# Same assay, conditions: TmPPase
row,Structure (SMILES),biological activity (in words)
1,Cc1c(-c2cc(C(=O)O)no2)cnn1C [Compound 6],lacked biological activity
2,CCOC(=O)c1cc(-c2cccc(-c3cc(C(=O)OCC)no3)c2)on1 [Compound 10n],neither the carboxylic acid 11n nor the ester 10n were notably active
3,O=C(O)c1cc(-c2ccccc2)on1 [Compound 11a],inactive
4,O=C(O)c1cc(-c2ccc([N+](=O)[O-])cc2)on1 [Compound 11h],did not lead to the desired activity
5,O=C(O)c1cc(-c2cc(C(F)(F)F)cc(C(F)(F)F)c2)on1 [Compound 11m],did not lead to the desired activity
6,O=C(O)c1cc(-c2cccc(-c3cc(C(=O)O)no3)c2)on1 [Compound 11n],neither the carboxylic acid 11n nor the ester 10n were notably active
7,Cc1cc(C)cc(-c2cc(C(=O)Nc3ccccc3Br)no2)c1 [Compound 28],inactive

# Same assay, conditions: computed using the pIC50 and the Heavy Atom Count (LEHA) normalization method, Discovery Studio
row,Structure (SMILES),LE (ligand efficiency)
1,O=c1[nH]c2ccc(S(=O)(=O)CCO)cc2o1 [Compound 2],0.27
2,O=C(Oc1ccccc1Br)c1cc(-c2ccc([N+](=O)[O-])cc2)on1 [Compound 12h],0.19
3,Cc1cccc(-c2cc(C(=O)Oc3ccccc3Br)no2)c1 [Compound 12i],0.23
4,CC(C)(C)c1cccc(-c2cc(C(=O)Oc3ccccc3Br)no2)c1 [Compound 12j],0.20
5,CC(C)(C)c1cc(C(=O)Nc2nccs2)cc(C(C)(C)C)c1 [Compound 13],0.20
6,CC(C)(C)c1cc(C(=O)Nc2ccc(S(N)(=O)=O)cc2)cc(C(C)(C)C)c1 [Compound 14],0.16
7,CC(C)(C)c1cc(C(=O)Nc2ccccc2Br)cc(C(C)(C)C)c1 [Compound 15],0.18
8,O=C(O)c1cnc(-c2ccccc2)s1 [Compound 23],0.32
9,O=C(Oc1ccccc1Br)c1cnc(-c2ccccc2)s1 [Compound 26],0.20
10,Cc1cc(C)cc(-c2cc(C(=O)Oc3ccccc3)no2)c1 [Compound 27],0.20
11,CCOC(=O)c1cc(-c2ccc(OC)c(S(=O)(=O)NC3CCCc4ccccc43)c2)on1 (centres unmarked) [SI-19],0.14

# Same assay, conditions: purified TmPPase; 95% confidence interval in square brackets
row,Structure (SMILES),IC50 [CI95%]
1,Cc1c(-c2cc(C(=O)O)no2)cnn1C [Compound 6],Inactive
2,CCOC(=O)c1cc(-c2ccccc2)on1 [Compound 10a],Inactive
3,CCOC(=O)c1cc(-c2ccccc2C(=O)OC)on1 [Compound 10b],Inactive
4,CCOC(=O)c1cc(-c2cccc(C(=O)OC)c2)on1 [Compound 10c],Inactive
5,CCOC(=O)c1cc(-c2ccc(C(=O)OC)cc2)on1 [Compound 10d],Inactive
6,CCOC(=O)c1cc(-c2ccccc2OC)on1 [Compound 10e],Inactive
7,CCOC(=O)c1cc(-c2cccc(OC)c2)on1 [Compound 10f],Inactive
8,CCOC(=O)c1cc(-c2ccc(OC)cc2)on1 [Compound 10g],Inactive
9,CCOC(=O)c1cc(-c2ccc([N+](=O)[O-])cc2)on1 [Compound 10h],Inactive
10,CCOC(=O)c1cc(-c2cccc(C)c2)on1 [Compound 10i],Inactive
11,CCOC(=O)c1cc(-c2cccc(C(C)(C)C)c2)on1 [Compound 10j],Slightly active
12,CC(C)(C)c1cc(C(=O)NCC(=O)O)cc(C(C)(C)C)c1 [Compound 19],Inactive
13,CC(C)(C)c1cc(CCC(=O)O)cc(C(C)(C)C)c1 [Compound 20],Inactive
14,O=C(O)c1cc(-c2ccc([N+](=O)[O-])cc2)[nH]n1 [Compound 22],Inactive
15,Nc1ccc(CO)c(B(O)O)c1 [SI-1],Inactive
16,Nc1ccc(S(=O)(=O)NC2=NCCS2)cc1 [SI-2],Inactive
17,O=C(O)c1ccc2c(c1)B(O)OC2 [SI-3],Inactive
18,O=C(O)CS(=O)(=O)c1ccccc1[N+](=O)[O-] [SI-4],Inactive
19,CC1(C)CS(=O)(=O)N(c2ccc(S(=O)(=O)Cl)cc2)C1=O [SI-5],Inactive
20,O=C(O)c1ccc2c(c1)S(=O)(=O)NC2=O [SI-6],Inactive
21,O=C1CS(=O)(=O)c2ccccc21 [SI-7],Inactive

row,Structure (SMILES),IC50 [CI95%]
1,Nc1ccc(S(=O)(=O)NCC(=O)O)cc1 [SI-8],Inactive
2,O=C(O)CN1C(=O)c2ccccc2S1(=O)=O [SI-9],Inactive
3,CC(=O)Nc1ccc(S(=O)(=O)NC(CO)C(=O)O)cc1 (centres unmarked) [SI-10],Inactive
4,Nc1nnnn1CC(=O)O [SI-11],Inactive
5,CS(=O)(=O)Nc1ccc(C#N)cc1 [SI-12],Inactive
6,CCOC(=O)c1cc(-c2csc(CS(C)(=O)=O)n2)on1 [SI-13],Inactive
7,CCOC(=O)c1cc(-c2csc(CS(=O)(=O)c3ccccn3)n2)on1 [SI-14],Inactive
8,CCOC(=O)c1cc(-c2csc(-c3cccc(Cl)c3)n2)on1 [SI-15],Inactive
9,CCOC(=O)c1cc(-c2csc(Nc3ccccc3)n2)on1 [SI-16],Inactive
10,CCOC(=O)c1cc(-c2ccc(OC)c(S(=O)(=O)Nc3ncccc3C)c2)on1 [SI-18],Inactive
11,CCOC(=O)c1cc(-c2ccc(OC)c(S(=O)(=O)N3CCCc4ccccc43)c2)on1 [SI-20],Inactive
12,CCOC(=O)c1cc(-c2ccc(OC)c(S(=O)(=O)N3CC(=O)Nc4ccccc43)c2)on1 [SI-21],Inactive
13,CCOC(=O)c1cc(-c2ccc(OC)c(S(=O)(=O)N3CCOc4ccccc43)c2)on1 [SI-22],Inactive
14,CCOC(=O)c1cc(-c2ccc(OC)c(S(=O)(=O)N3CCOCC3)c2)on1 [SI-23],Inactive
15,COc1ccc(-c2cc(C(=O)O)no2)cc1S(=O)(=O)N1CCOCC1 [SI-24],Inactive
16,CCOC(=O)c1cc(-c2ccc(OC)c(S(=O)(=O)N3CCc4ccccc43)c2)on1 [SI-25],Inactive
17,CCOC(=O)c1cc(-c2ccc(OC)c(S(=O)(=O)NC3CCCC3)c2)on1 [SI-26],Inactive
18,CCOC(=O)c1cc(-c2ccc(OC)c(S(=O)(=O)N3CCCC3)c2)on1 [SI-27],Inactive
19,COc1ccc(-c2cc(C(=O)O)no2)cc1S(=O)(=O)N1CCCC1 [SI-28],Inactive
20,CCOC(=O)c1cc(-c2ccc(OC)c(S(=O)(=O)Nc3cccc(Cl)c3)c2)on1 [SI-30],Inactive

# Same assay, conditions: versus 12k
row,Structure (SMILES),fold loss of inhibition on removing the bromine atom
1,Cc1cc(C)cc(-c2cc(C(=O)Oc3ccccc3)no2)c1 [Compound 27],3.6 fold
